# According to US5156956A, “Transgultaminase” (Ajinomoto Co., Inc., priority 1987, dated 1992):
# Residues, ends and D or L forms follow the SMILES beside them. *: point of attachment. Cbz = O=C(OCc1ccccc1)*
# Columns and labels:
# BTG-1 [1] = target: T1, BTG-1 (Streptomyces mobaraensis, UniProt P81453); assay: Influence of metal ions on activity; type: biochemical, Streptoverticillium mobaraense IFO 13819; conditions: metal ion 1 mM; None = 100; 30 min
# T1 construct: BTGase is dissolved in the culture solution and can be harvested from the culture filtrate; endogenous in cells; host or cells: Streptoverticillium mobaraense IFO 13819 (natural producer; purified from culture filtrate)
# T1 sequence (P81453 77-407): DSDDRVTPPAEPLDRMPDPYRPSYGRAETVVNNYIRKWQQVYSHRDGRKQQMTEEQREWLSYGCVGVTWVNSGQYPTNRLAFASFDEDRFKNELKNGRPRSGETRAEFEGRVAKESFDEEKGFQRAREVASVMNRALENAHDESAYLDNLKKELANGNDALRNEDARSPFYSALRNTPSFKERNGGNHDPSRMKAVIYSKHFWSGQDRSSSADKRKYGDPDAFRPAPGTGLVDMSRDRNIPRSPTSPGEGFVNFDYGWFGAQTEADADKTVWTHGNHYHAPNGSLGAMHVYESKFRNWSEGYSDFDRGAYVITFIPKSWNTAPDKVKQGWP
# Description: (§1) Measurement of the activity of BTGase is carried out by performing a reaction using benzyloxycarbonyl-L-glutaminyl glycine and hydroxylamine as substrates in the absence of Ca^2+, forming an iron complex with the resulting hydroxamic acid in the presence of trichloroacetic acid, measuring absorption at 525 nm and determining the amount of hydroxamic acid by a calibration curve to calculate the activity. The BTGase activity is measured by the method described below, unless otherwise indicated.
# (§2) To 0.05 ml of an enzyme solution is added 0.5 ml of Reagent A and they are mixed with each other. After reacting at 37° C. for 30 minutes, Reagent B is added thereto to discontinue the reaction and form an Fe complex. Thereafter, absorbance is measured at 525 nm. […] Separately, a calibration curve is prepared using L-glutamic acid γ-monohydroxamio acid instead of the enzyme solution, and the amount of hydroxamic acid produced is determined by the difference in absorbance described above. An enzyme activity which produces 1 μmol of hydroxamic acid per 1 minute is defined as 1 unit.
# BTG-3 [2] = target: T2, BTG-3 (Streptomyces cinnamoneus, UniProt Q8GR90); assay: Influence of metal ions on activity; type: biochemical; conditions: metal ion 1 mM; None = 100; 30 min
# T2 construct: Ca2+-independent; made as pre-pro-protein
# T2 sequence (Q8GR90 86-416): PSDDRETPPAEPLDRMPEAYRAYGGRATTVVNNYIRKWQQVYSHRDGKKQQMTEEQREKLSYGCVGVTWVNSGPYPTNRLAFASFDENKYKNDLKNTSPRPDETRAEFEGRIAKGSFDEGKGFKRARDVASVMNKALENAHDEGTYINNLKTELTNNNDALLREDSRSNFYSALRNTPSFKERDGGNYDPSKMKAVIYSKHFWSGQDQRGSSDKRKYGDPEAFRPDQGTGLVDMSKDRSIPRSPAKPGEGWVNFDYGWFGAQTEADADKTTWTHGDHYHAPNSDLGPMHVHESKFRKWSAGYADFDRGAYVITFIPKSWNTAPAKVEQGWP
# Description: as §1, §2
# BTG-2 [3] = target: T3, BTG-2 (Streptomyces griseocarneus, UniProt A0ABX7RSJ1); type: biochemical, Streptoverticillium griseocarneum IFO 12776; conditions: metal ion 1 mM; None = 100; 30 min
# T3 construct: Ca2+-independent; made as pre-pro-protein
# Description: as §1, §2
# BTGase = assay: Substrate specificity, statement on all BTGases; type: biochemical, Streptoverticillium; conditions: substrate 5 mM, with hydroxylamine
# Description: (§3) Using each BTGase, reactions of various synthetic substrates with hydroxylamine were examined. […] In this case, the concentration of various synthetic substrates is 5 mM. In the table, CBZ, Gln, Gly and Asn are abbreviations for benzyloxycarbonyl group, glutaminyl group, glycyl group and asparaginyl group, respectively.
# BTG-2 [4] = target: T3, BTG-2; assay: Substrate specificity: synthetic substrates with hydroxylamine; type: biochemical, Streptoverticillium griseocarneum IFO 12776; conditions: for Reactivity of substrate with BTG-2 (relative, Table 1): substrate 5 mM, with hydroxylamine; for Substrate specificity (%) BTG-2: Table 4
# Description: as §1, §2, §3
# BTG-1 [5] = target: T1, BTG-1; assay: as above; type: biochemical, Streptoverticillium mobaraense IFO 13819; conditions: for Reactivity of substrate with BTG-1 (relative, Table 1): substrate 5 mM, with hydroxylamine; for Substrate specificity (%) BTG-1: Table 4
# Description: as §1, §2, §3
# BTG-3 [6] = target: T2, BTG-3; assay: as above; type: biochemical; conditions: for Reactivity of substrate with BTG-3 (relative, Table 1): substrate 5 mM, with hydroxylamine; for Substrate specificity (%) BTG-3: Table 4
# Description: as §1, §2, §3
# [7] = target: T4, MTGase (transglutaminase of guinea pig liver) (UniProt P08587); assay: Substrate specificity: synthetic substrates; type: biochemical; conditions: Table 4
# T4 construct: from tissue; host or cells: guinea pig liver
# T4 sequence (P08587 1-690): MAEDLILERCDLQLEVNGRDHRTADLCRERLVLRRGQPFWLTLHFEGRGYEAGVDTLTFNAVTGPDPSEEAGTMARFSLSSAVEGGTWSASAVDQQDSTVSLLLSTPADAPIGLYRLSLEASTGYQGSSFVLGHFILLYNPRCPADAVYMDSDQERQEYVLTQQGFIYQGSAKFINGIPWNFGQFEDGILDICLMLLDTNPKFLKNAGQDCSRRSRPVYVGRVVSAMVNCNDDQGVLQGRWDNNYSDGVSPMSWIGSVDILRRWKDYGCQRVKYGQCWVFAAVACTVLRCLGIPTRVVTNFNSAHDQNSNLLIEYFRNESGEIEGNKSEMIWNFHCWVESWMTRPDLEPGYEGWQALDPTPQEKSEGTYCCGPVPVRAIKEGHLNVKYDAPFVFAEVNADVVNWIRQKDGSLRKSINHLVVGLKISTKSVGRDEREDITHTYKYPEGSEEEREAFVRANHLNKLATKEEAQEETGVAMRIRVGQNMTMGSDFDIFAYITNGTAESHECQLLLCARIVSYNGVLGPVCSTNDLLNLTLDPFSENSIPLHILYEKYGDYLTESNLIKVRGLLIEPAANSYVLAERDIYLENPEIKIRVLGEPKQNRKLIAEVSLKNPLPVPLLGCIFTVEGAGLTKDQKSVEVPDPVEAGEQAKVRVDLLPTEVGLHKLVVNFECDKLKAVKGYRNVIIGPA
# Description: Next, properties of BTGases are compared to those of guinea pig liver-derived transglutaminase. The guinea pig liver-derived transglutaminase was prepared by the method described in Published Unexamined Japanese Patent Application No. 149645/83. As will be apparent from Tables 4 and 5, various differences in enzymological properties are noted between transglutaminase of guinea pig liver (hereafter referred to as MTGase) which has been mainly investigated heretofore and BTGases derived from actinomycetes; in particular, differences are noted in temperature stability, molecular weight, isoelectric point and substrate specificity. Further, a difference is noted in that the BTGases of the present invention act in the presence and absence of Ca^2+. Therefore, the respective enzymes of the present invention are different from MTGase in their properties.
# BTG-2 [8] = target: T3, BTG-2; assay: biochemical; set-up: species or system Streptoverticillium griseocarneum IFO 12776; conditions: for inhibition at 1000 µM: read-out: BTG-2 (%) activity with inhibitor
# Description: as §1, §2
# BTG-1 [9] = target: T1, BTG-1; assay: biochemical; set-up: species or system Streptoverticillium mobaraense IFO 13819; conditions: for inhibition at 1000 µM: read-out: BTG-1 (%) activity with inhibitor
# Description: as §1, §2
# BTG-3 [10] = target: T2, BTG-3; assay: biochemical; conditions: for inhibition at 1000 µM: read-out: BTG-3 (%) activity with inhibitor
# Description: as §1, §2
# [11] = inhibitor 1 mM, 25° C. for 30 minutes, None = 100
SMILES,BTG-1 (%) activity with metal ion (BTG-1 [1]),BTG-3 (%) activity with metal ion (BTG-3 [2]),BTG-2 (%) activity with metal ion (BTG-2 [3]),"Reactivity of substrate with BTG-2 (relative, Table 1) (BTG-2 [4])","Reactivity of substrate with BTG-1 (relative, Table 1) (BTG-1 [5])","Reactivity of substrate with BTG-3 (relative, Table 1) (BTG-3 [6])",also measured
[Ba+2].[Cl-].[Cl-] [BaCl2],101%,105%,99%,–,–,–,–
"NC(=O)C[C@H](NC(=O)OCc1ccccc1)C(=O)NCC(=O)O [CBZ--Asn--Gly, benzyloxycarbonylasparaginyl glycine] (Cbz-Asn-Gly-OH)",–,–,–,0,0,0,Reactivity of synthetic substrate with the BTGases (in words) (BTGase): No BTGase reacts
"NC(=O)CC[C@H](NC(=O)OCc1ccccc1)C(=O)O [CBZ--Gln, benzyloxycarbonyl glutamine]",–,–,–,0,0,0,Reactivity of synthetic substrate with the BTGases (in words) (BTGase): No BTGase reacts
NC(=O)CC[C@H](NC(=O)OCc1ccccc1)C(=O)N[C@@H](CCC(N)=O)C(=O)NCC(=O)O [CBZ--Gln--Gln--Gly] (Cbz-Gln-Gln-Gly-OH),–,–,–,39,38,35,Substrate specificity (%) MTGase [7]: 288%; Substrate specificity (%) BTG-2 (BTG-2 [4]): 39%; Substrate specificity (%) BTG-1 (BTG-1 [5]): 38%; Substrate specificity (%) BTG-3 (BTG-3 [6]): 35%
"NC(=O)CC[C@H](NC(=O)OCc1ccccc1)C(=O)NCC(=O)O [CBZ--Gln--Gly, benzyloxycarbonylglutaminyl glycine] (Cbz-Gln-Gly-OH)",–,–,–,100,100,100,Substrate specificity (%) MTGase [7]: 100%; Reactivity of synthetic substrate with the BTGases (in words) (BTGase): reactivity is the highest; Substrate specificity (%) BTG-2 (BTG-2 [4]): 100%; Substrate specificity (%) BTG-1 (BTG-1 [5]): 100%; Substrate specificity (%) BTG-3 (BTG-3 [6]): 100%
CCOC(=O)CNC(=O)[C@H](CCC(N)=O)NC(=O)OCc1ccccc1 [CBZ--Gln--Gly--OEt] (Cbz-Gln-Gly-OEt),–,–,–,44,63,42,Substrate specificity (%) MTGase [7]: 122%; Substrate specificity (%) BTG-2 (BTG-2 [4]): 44%; Substrate specificity (%) BTG-1 (BTG-1 [5]): 63%; Substrate specificity (%) BTG-3 (BTG-3 [6]): 42%
NC(=O)CC[C@H](NC(=O)CNC(=O)OCc1ccccc1)C(=O)NCC(=O)NCC(=O)O [CBZ--Gly--Gln--Gly--Gly] (Cbz-GQGG-OH),–,–,–,12,8,11,Substrate specificity (%) MTGase [7]: 126%; Substrate specificity (%) BTG-2 (BTG-2 [4]): 12%; Substrate specificity (%) BTG-1 (BTG-1 [5]): 8%; Substrate specificity (%) BTG-3 (BTG-3 [6]): 11%
NC(=O)CC[C@H](NC(=O)CNC(=O)CNC(=O)OCc1ccccc1)C(=O)NCC(=O)O [CBZ--Gly--Gly--Gln--Gly] (Cbz-GGQG-OH),–,–,–,58,23,60,Substrate specificity (%) MTGase [7]: 27%; Substrate specificity (%) BTG-2 (BTG-2 [4]): 58%; Substrate specificity (%) BTG-1 (BTG-1 [5]): 23%; Substrate specificity (%) BTG-3 (BTG-3 [6]): 60%
[Cl-].[Cl-].[Co+2] [CoCl2],103%,103%,103%,–,–,–,–
O=C(O)CN(CCN(CC(=O)O)CC(=O)O)CC(=O)O [EDTA],–,–,–,–,–,–,inhibition at 1000 µM (BTG-2 [8]): 98%; inhibition at 1000 µM (BTG-1 [9]): 102%; inhibition at 1000 µM (BTG-3 [10]): 99%
[Cl][Fe]([Cl])[Cl] [FeCl3],96%,106%,104%,–,–,–,–
"NCC(=O)N[C@@H](CCC(N)=O)C(=O)NCC(=O)O [Gly--Gln--Gly, glycylglutaminyl glycine] (H-Gly-Gln-Gly-OH)",–,–,–,0,0,0,Reactivity of synthetic substrate with the BTGases (in words) (BTGase): No BTGase reacts
[Cl-].[K+] [KCl],96%,105%,99%,–,–,–,–
[Cl-].[Cl-].[Mg+2] [MgCl2],–,103%,104%,–,–,–,–
[Cl][Mn][Cl] [MnCl2],–,97%,97%,–,–,–,–
O=C(O)CI [Monoiodoacetic acid],–,–,–,–,–,–,Effect of inhibitor on activity of all BTGases (in words) (all BTGases): inhibited; inhibition at 1000 µM (BTG-2 [8]): 50%; inhibition at 1000 µM (BTG-1 [9]): 64%; inhibition at 1000 µM (BTG-3 [10]): 67%
[Cl-].[Na+] [NaCl],99%,101%,102%,–,–,–,–
[Cl][Ni][Cl] [NiCl2],–,–,100%,–,–,–,–
"O=S(=O)(F)Cc1ccccc1 [PMSF, phenylmethylsulfonyl fluoride]",–,–,–,–,–,–,BTG-2 (%) activity with inhibitor (BTG-2 [8]; [11]): 95%; BTG-1 (%) activity with inhibitor (BTG-1 [9]; [11]): 104%; BTG-3 (%) activity with inhibitor (BTG-3 [10]; [11]): 101%
CC(=O)[O-].CC(=O)[O-].[Pb+2] [Pb(CH3 COO)2],97%,100%,97%,–,–,–,–
[Cl-].[Cl-].[Sr+2] [SrCl2],100%,100%,101%,–,–,–,–
